Data reported in the METLIN SMRT retention time set (Domingo-Almenara et al. 2019).

Assay: gradient 5% acetonitrile 3 min, to 50% in 2 min, to 85% in 15 min, held 3 min, 100 µL/min
Conditions: column: Zorbax Extend-C18 2.1 x 50 mm; eluents: water / acetonitrile, 0.1% formic acid
Summary of the method: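 The mobile phases were water and acetonitrile, each with 0.1% formic acid, pumped at 100 μL/min through a Zorbax Extend-C18 column (2.1 × 50 mm, 1.8 μm). Pure standards were injected as mixtures of ~100 molecules and detected by a quadrupole time-of-flight mass spectrometer in positive and negative ionization mode. Retention time came from computationally picked adduct peaks, each inspected by hand.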

## COC(=O)c1cccc(NC(=O)c2[nH]c3cc(C)sc3c2CN2CCOCC2)c1
  RP-LC retention time: 673 s

## Cc1nn(-c2ccccc2)c(C)c1S(=O)(=O)N1CCC(C(=O)Nc2ccc(C#N)cc2)CC1
  RP-LC retention time: 938 s

## O=C([C@@H]1C[C@H](F)CN1C(=O)c1ccccc1)N1CCOCC1
  RP-LC retention time: 590 s

## CCn1cc(-c2nc(C)c(C(=O)NCc3cccc(C)c3)s2)c2cccnc21
  RP-LC retention time: 989 s

## Cc1ccc(-c2nc3cnccn3c2Nc2ccc(C(=O)NCc3ccco3)cc2)cc1
  RP-LC retention time: 753 s

## O=C(COc1cc(O)c2c(=O)cc(-c3ccccc3)oc2c1)OCc1ccccc1
  RP-LC retention time: 1200 s

## Cc1noc(-c2cccc(OC3CN(S(=O)(=O)c4c(C)nn(C)c4C)C3)c2)n1
  RP-LC retention time: 850 s

## Cn1c(=O)n(C2CCN(C(=O)Cc3ccsc3)CC2)c2ncncc21
  RP-LC retention time: 630 s

## Cc1ccc(-c2cc3c4nnc(CCC(=O)N5CCN(C(=O)c6ccco6)CC5)n4ccn3n2)cc1C
  RP-LC retention time: 759 s

## c1ccc(-c2nc3nc4c(c(Nc5ccc6c(c5)OCCO6)n3n2)CCCC4)cc1
  RP-LC retention time: 970 s

## Cc1cccc(N(C)C(=O)Cn2nc3nc(N4CCCC4)ccn3c2=O)c1
  RP-LC retention time: 678 s

## CN(C)C(=O)C1c2ccccc2CC(=O)N1Cc1ccccc1 (stereo unspecified)
  RP-LC retention time: 728 s

## COc1ccc2c(C)cc(C)nc2n1
  RP-LC retention time: 595 s

## CCc1ccc(NC(=O)N2CC(n3cnnc3C3CCOCC3)C2)cc1
  RP-LC retention time: 599 s

## Cc1ccc(F)cc1NS(=O)(=O)c1cc2c(s1)CCN(C(=O)C1CC1)C2
  RP-LC retention time: 839 s

## COc1ccccc1CCC(=O)N1CCn2cnnc2C1
  RP-LC retention time: 594 s

## Cn1c(-c2ccccc2)c(C(=O)C(=O)N2CCOCC2)c2ccccc21
  RP-LC retention time: 800 s

## COc1ccc(-c2noc(-c3nnn4c3COC(c3ccc(F)cc3)C4)n2)c(OC)c1 (stereo unspecified)
  RP-LC retention time: 836 s

## CCOC(=O)N1CCN(C(=O)CSc2nc(-c3cccc(C)c3)ns2)CC1
  RP-LC retention time: 941 s

## O=C(c1ccc(C(F)(F)F)cc1)N1CCc2nc(-c3ccc(F)cc3)ncc2C1
  RP-LC retention time: 1080 s

## CCCNC(=O)CSc1cn(CC(=O)N2CC(C)OC(C)C2)c2ccccc12 (stereo unspecified)
  RP-LC retention time: 745 s

## CCC(C)(C)NS(=O)(=O)c1cc(-c2nc(C)cs2)n(CC(=O)N2CCCC2)c1
  RP-LC retention time: 967 s

## Nc1ccccc1Sc1cc(Cl)nnc1Cl
  RP-LC retention time: 983 s

## CCc1nnc(C2CN(C)CC23CCN(S(=O)(=O)c2ccccc2C)CC3)o1 (stereo unspecified)
  RP-LC retention time: 627 s

## Cc1ccccc1NC(=O)c1c(NC(=O)CCC(=O)O)sc2c1CCCC2
  RP-LC retention time: 939 s

## Cn1nc(C(=O)Nc2cccc3nsnc23)ccc1=O
  RP-LC retention time: 723 s

## COc1ccc(CN2CCc3nc(N4CCN(c5ncccn5)CC4)ncc3C2)c(OC)c1
  RP-LC retention time: 664 s

## O=C(NCc1cccc2ccccc12)NCC1CCN(C(=O)COc2ccccc2)CC1
  RP-LC retention time: 770 s

## O=C(C1CCCN(c2ncnc3c2nc2n3CCCCC2)C1)N1CCN(c2ccc(F)cc2)CC1 (stereo unspecified)
  RP-LC retention time: 829 s

## Cn1c(=O)n([C@@H]2CCN(C(=O)c3ccc4c(c3)OCO4)C2)c2ncccc21
  RP-LC retention time: 688 s

## Cc1cc(C)c2c(N3CCCC3)nc(C(=O)NCc3ccc(C)o3)nc2n1
  RP-LC retention time: 577 s

## CC(NC(=O)C1CCN(C(=O)N2CCOc3ccc(Cl)cc32)CC1)c1ccccc1 (stereo unspecified)
  RP-LC retention time: 906 s

## Cc1ccc(C(C)NC(=O)c2cn3ccncc3n2)c(C)c1 (stereo unspecified)
  RP-LC retention time: 787 s

## Cc1nc(-c2csc(S(=O)(=O)N3CCC(C(=O)Nc4ccc(F)cc4)CC3)c2)no1
  RP-LC retention time: 916 s

## CN(C)c1cccc(-c2nc(-c3ccc4c(c3)nnn4CCN3CCOCC3)no2)c1
  RP-LC retention time: 706 s

## CCOC(=O)C1=C(C)NC2=C(C(=O)c3ccccc32)C1c1ccc(OC)c(OC)c1 (stereo unspecified)
  RP-LC retention time: 902 s
